Source: ChEMBL document CHEMBL1143953, “Novel 2-phenylquinolin-7-yl-derived imidazo[1,5-a]pyrazines as potent insulin-like growth factor-I receptor (IGF-IR) inhibitors” (Bioorg Med Chem, 2008)

Tests used:
[1] = test system: NIH3T3; assay: Inhibition of IGF1-stimulated purified AKT phosphorylation in mouse 3T3 cells; format: functional, cell-based
[2] = target: Tyrosine-protein kinase Fes/Fps (Homo sapiens, UniProt P07332); assay: Inhibition of FES
[3] = Plasma concentration in Beagle dog at 5 mg/kg, po after 24 hrs; format: ADME, organism-based, Canis lupus familiaris; set-up: dose 5 mg/kg, route oral
[4] = Volume of distribution at steady state in Beagle dog at 2.5 mg/kg, iv; format: ADME, organism-based, Canis lupus familiaris; set-up: dose 2.5 mg/kg, route intravenous; details: in vivo, read-out: Vdss
[5] = Oral bioavailability in Beagle dog at 5 mg/kg; format: ADME, organism-based, Canis lupus familiaris; details: in vivo
[6] = target: Cytochrome P450 3A4 (Homo sapiens, UniProt P08684); assay: Inhibition of CYP3A4; format: ADME
[7] = Inhibition of CDK2/cyclin A
[8] = test system: Mus musculus; assay: Effect on plasma insulin level in CD1 mouse at 50 mg/kg, po after 4 hrs; format: functional
[9] = Half life in Sprague-Dawley rat at 1 mg/kg, iv; format: ADME, organism-based; set-up: dose 1 mg/kg, route intravenous; details: in vivo
[10] = test system: NIH3T3; assay: Inhibition of IGF1-stimulated purified ERK1 phosphorylation in mouse 3T3 cells; format: functional, cell-based
[11] = target: Focal adhesion kinase 1 (Homo sapiens, UniProt Q05397); assay: Inhibition of FAK
[12] = Cmax in CD1 mouse at 25 mg/kg, po; format: ADME, organism-based; set-up: dose 25 mg/kg, route oral; details: in vivo
[13] = Plasma concentration in CD1 mouse at 25 mg/kg, po after 24 hrs; format: ADME, organism-based; set-up: dose 25 mg/kg, route oral
[14] = test system: Mus musculus; assay: Effect on plasma insulin level in CD1 mouse at 100 mg/kg, po after 4 hrs; format: functional
[15] = target: Fibroblast growth factor receptor 3 (Homo sapiens, UniProt P22607); assay: Inhibition of FGFR3
[16] = test system: NCI-H358; assay: Inhibition of proliferation of human H358 cells; format: functional, cell-based
[17] = AUC (0 to infinity) in CD1 mouse at 25 mg/kg, po; format: ADME, organism-based; set-up: time infinity, dose 25 mg/kg, route oral; details: plasma
[18] = target: T1, Insulin-like growth factor 1 receptor (Homo sapiens, UniProt P08069)
Description: Inhibition of human recombinant full length IGF1R expressed in mouse 3T3 cells

[19] = Plasma concentration in Sprague-Dawley rat at 50 mg/kg, po after 24 hrs; format: ADME, organism-based; set-up: dose 50 mg/kg, route oral
[20] = Inhibition of proliferation of human H292 cells; format: functional, cell-based; details: NCI-H292
[21] = target: Receptor-type tyrosine-protein kinase FLT3 (Homo sapiens, UniProt P36888); assay: Inhibition of FLT3
[22] = Half life in CD1 mouse at 5 mg/kg, iv; format: ADME, organism-based; set-up: dose 5 mg/kg, route intravenous; details: in vivo
[23] = Induction of DNA fragmentation in human Colo699 cells at 10 uM relative to control; format: functional
[24] = test system: Mus musculus; assay: Effect on blood glucose level in CD1 mouse at 25 mg/kg, po for 14 days; format: functional
[25] = Inhibition of RON at 100 uM
[26] = Half life in Beagle dog at 2.5 mg/kg, iv; format: ADME, organism-based, Canis lupus familiaris; set-up: dose 2.5 mg/kg, route intravenous; details: in vivo
[27] = target: Tyrosine-protein kinase ABL1 (Homo sapiens, UniProt P00519); assay: Inhibition of Abl
[28] = target: Dual specificity mitogen-activated protein kinase kinase 1 (Homo sapiens, UniProt Q02750); assay: Inhibition of MEK1
[29] = target: Vascular endothelial growth factor receptor 2 (Homo sapiens, UniProt P35968); assay: Inhibition of KDR at 100 uM
[30] = Inhibition of proliferation of human Colo699 cells; format: functional; details: COLO 699
[31] = test system: NIH3T3; assay: Antitumor activity in IGFR expressing mouse 3T3 cells xenografted nu/nu CD1 mouse at 75 mg/kg, po administered once daily for 14 days; format: functional; details: CD1, NIH3T3, 336 h, read-out: TGI
[32] = test system: Mus musculus; assay: Increase in blood glucose level in CD1 mouse at 50 mg/kg, po for 14 days; format: functional
[33] = test system: Mus musculus; assay: Increase in glucose level in CD1 mouse at 100 mg/kg, po 2 hrs after glucose challenge; format: functional
[34] = test system: NIH3T3; assay: Antiproliferative activity against human IGF1R expressing mouse 3T3 cells; format: functional, cell-based
[35] = Clearance in CD1 mouse at 5 mg/kg, iv; format: ADME, organism-based; set-up: dose 5 mg/kg, route intravenous; details: in vivo
[36] = Inhibition of CDK2/cyclin E
[37] = test system: NIH3T3; assay: Antitumor activity in IGFR expressing mouse 3T3 cells xenografted nu/nu CD1 mouse at 25 mg/kg, po administered once daily for 14 days; format: functional; details: CD1, NIH3T3, 336 h, read-out: TGI
[38] = test system: HT-29; assay: Induction of DNA fragmentation in human HT29 cells at 10 uM relative to control; format: functional
[39] = Oral bioavailability in Sprague-Dawley rat at 50 mg/kg; format: ADME, organism-based; details: in vivo
[40] = target: RAC-alpha serine/threonine-protein kinase (Homo sapiens, UniProt P31749); assay: Inhibition of AKT1
[41] = Induction of DNA fragmentation in human H292 cells at 10 uM relative to control; format: functional
[42] = target: Inhibitor of nuclear factor kappa-B kinase subunit beta (Homo sapiens, UniProt O14920); assay: Inhibition of IKK-beta
[43] = test system: COLO 205; assay: Inhibition of proliferation of human Colo205 cells; format: functional, cell-based
[44] = target: Platelet-derived growth factor receptor beta (Homo sapiens, UniProt P09619); assay: Inhibition of PDGFRbeta
[45] = target: Tyrosine-protein kinase Fyn (Homo sapiens, UniProt P06241); assay: Inhibition of FYN
[46] = target: RAF proto-oncogene serine/threonine-protein kinase (Homo sapiens, UniProt P04049); assay: Inhibition of cRaf
[47] = target: Rho-associated protein kinase 2 (Homo sapiens, UniProt O75116); assay: Inhibition of Rock2
[48] = AUC (0 to infinity) in Sprague-Dawley rat at 50 mg/kg, po; format: ADME, organism-based; set-up: dose 50 mg/kg, route oral, time infinity; details: plasma
[49] = target: Protein kinase C alpha type (Homo sapiens, UniProt P17252); assay: Inhibition of PKCalpha
[50] = target: Aurora kinase A (Homo sapiens, UniProt O14965); assay: Inhibition of AuroraA
[51] = test system: Mus musculus; assay: Increase in blood glucose level in CD1 mouse at 100 mg/kg, po for 14 days; format: functional
[52] = target: Ribosomal protein S6 kinase beta-1 (Homo sapiens, UniProt P23443); assay: Inhibition of P70S6K
[53] = test system: NIH3T3; assay: Inhibition of IGF1-induced proliferation of human IGF1R expressing mouse 3T3 cells; format: functional, cell-based
[54] = AUC (0 to infinity) in Beagle dog at 5 mg/kg, po; format: ADME, organism-based, Canis lupus familiaris; set-up: time infinity, dose 5 mg/kg, route oral; details: plasma
[55] = Inhibition of PKA
[56] = Volume of distribution at steady state in Sprague-Dawley rat at 1 mg/kg, iv; format: ADME, organism-based; set-up: dose 1 mg/kg, route intravenous; details: in vivo, read-out: Vdss
[57] = Inhibition of proliferation of human GEO cells; format: functional, cell-based
[58] = test system: HT-29; assay: Inhibition of proliferation of human HT29 cells; format: functional, cell-based
[59] = Cmax in Beagle dog at 5 mg/kg, po; format: ADME, organism-based, Canis lupus familiaris; set-up: dose 5 mg/kg, route oral; details: in vivo
[60] = Cmax in Sprague-Dawley rat at 50 mg/kg, po; format: ADME, organism-based; set-up: dose 50 mg/kg, route oral; details: in vivo
[61] = Clearance in Sprague-Dawley rat at 1 mg/kg, iv; format: ADME, organism-based; set-up: dose 1 mg/kg, route intravenous; details: in vivo
[62] = test system: Mus musculus; assay: Effect on plasma insulin level in CD1 mouse at 25 mg/kg, po after 4 hrs; format: functional
[63] = test system: NCI-H358; assay: Induction of DNA fragmentation in human H358 cells at 10 uM relative to control; format: functional
[64] = target: Mitogen-activated protein kinase 1 (Mus musculus) (UniProt P63085); assay: Inhibition of IGF1-stimulated purified ERK2 phosphorylation in mouse 3T3 cells; format: cell-based; details: NIH3T3
[65] = target: T1, Insulin-like growth factor 1 receptor; assay: Inhibition of human recombinant full length IGF1R
[66] = Inhibition of CDK1/cyclin B
[67] = target: Proto-oncogene tyrosine-protein kinase Src (Homo sapiens, UniProt P12931); assay: Inhibition of SRC
[68] = Clearance in Beagle dog at 2.5 mg/kg, iv; format: ADME, organism-based, Canis lupus familiaris; set-up: dose 2.5 mg/kg, route intravenous; details: in vivo
[69] = Induction of DNA fragmentation in human GEO cells at 10 uM relative to control; format: functional
[70] = target: Casein kinase II subunit alpha (Homo sapiens, UniProt P68400); assay: Inhibition of CK2
[71] = test system: COLO 205; assay: Induction of DNA fragmentation in human Colo205 cells at 10 uM relative to control; format: functional
[72] = test system: NIH3T3; assay: Inhibition of IGF1-stimulated p70S6K phosphorylation in mouse 3T3 cells; format: functional, cell-based
[73] = target: Mitogen-activated protein kinase 10 (Homo sapiens, UniProt P53779); assay: Inhibition of JNK3
[74] = Volume of distribution at steady state in CD1 mouse at 5 mg/kg, iv; format: ADME, organism-based; set-up: dose 5 mg/kg, route intravenous; details: in vivo, read-out: Vdss
[75] = Oral bioavailability in CD1 mouse at 25 mg/kg; format: ADME, organism-based; details: in vivo
[76] = target: Insulin receptor (Homo sapiens, UniProt P06213); assay: Inhibition of human purified insulin receptor in biochemical assay at 100 uM ATP

T1 sequence (P08069 31-736 limits assumed): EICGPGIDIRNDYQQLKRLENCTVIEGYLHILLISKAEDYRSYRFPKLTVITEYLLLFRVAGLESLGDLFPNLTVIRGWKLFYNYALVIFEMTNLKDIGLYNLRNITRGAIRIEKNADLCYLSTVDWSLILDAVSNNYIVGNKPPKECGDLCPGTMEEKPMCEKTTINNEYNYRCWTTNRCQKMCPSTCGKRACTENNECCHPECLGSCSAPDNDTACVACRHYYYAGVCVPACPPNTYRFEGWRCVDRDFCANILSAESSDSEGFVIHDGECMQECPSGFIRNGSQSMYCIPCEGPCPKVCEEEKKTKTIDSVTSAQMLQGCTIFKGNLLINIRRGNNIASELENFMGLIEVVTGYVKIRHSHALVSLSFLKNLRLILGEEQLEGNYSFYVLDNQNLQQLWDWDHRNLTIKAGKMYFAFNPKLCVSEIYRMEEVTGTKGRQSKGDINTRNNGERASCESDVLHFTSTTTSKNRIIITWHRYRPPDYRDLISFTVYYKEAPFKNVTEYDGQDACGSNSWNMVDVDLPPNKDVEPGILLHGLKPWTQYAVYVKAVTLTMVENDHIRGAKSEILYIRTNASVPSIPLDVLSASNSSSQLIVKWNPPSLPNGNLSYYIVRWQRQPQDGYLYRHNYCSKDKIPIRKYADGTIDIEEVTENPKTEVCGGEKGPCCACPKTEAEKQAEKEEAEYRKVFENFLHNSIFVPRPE
T1 sequence (P08069 741-1367 limits assumed): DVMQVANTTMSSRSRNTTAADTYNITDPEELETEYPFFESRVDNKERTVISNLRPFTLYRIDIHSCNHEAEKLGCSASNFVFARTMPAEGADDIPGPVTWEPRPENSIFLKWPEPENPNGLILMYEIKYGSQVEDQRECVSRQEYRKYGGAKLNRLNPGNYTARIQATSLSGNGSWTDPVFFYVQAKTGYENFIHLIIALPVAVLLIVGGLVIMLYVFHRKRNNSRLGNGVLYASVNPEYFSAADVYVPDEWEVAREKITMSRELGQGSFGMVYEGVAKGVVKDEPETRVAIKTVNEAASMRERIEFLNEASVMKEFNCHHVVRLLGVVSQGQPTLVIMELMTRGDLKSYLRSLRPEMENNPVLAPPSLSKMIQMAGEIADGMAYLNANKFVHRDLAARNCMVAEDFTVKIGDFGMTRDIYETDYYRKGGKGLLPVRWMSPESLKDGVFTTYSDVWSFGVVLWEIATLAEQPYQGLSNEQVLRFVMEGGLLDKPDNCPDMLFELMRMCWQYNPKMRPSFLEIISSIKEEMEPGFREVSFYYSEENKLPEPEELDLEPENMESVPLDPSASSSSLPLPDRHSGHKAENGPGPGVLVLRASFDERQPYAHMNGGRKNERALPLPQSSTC
Cytochrome P450 3A4, sequence (P08684 whole entry): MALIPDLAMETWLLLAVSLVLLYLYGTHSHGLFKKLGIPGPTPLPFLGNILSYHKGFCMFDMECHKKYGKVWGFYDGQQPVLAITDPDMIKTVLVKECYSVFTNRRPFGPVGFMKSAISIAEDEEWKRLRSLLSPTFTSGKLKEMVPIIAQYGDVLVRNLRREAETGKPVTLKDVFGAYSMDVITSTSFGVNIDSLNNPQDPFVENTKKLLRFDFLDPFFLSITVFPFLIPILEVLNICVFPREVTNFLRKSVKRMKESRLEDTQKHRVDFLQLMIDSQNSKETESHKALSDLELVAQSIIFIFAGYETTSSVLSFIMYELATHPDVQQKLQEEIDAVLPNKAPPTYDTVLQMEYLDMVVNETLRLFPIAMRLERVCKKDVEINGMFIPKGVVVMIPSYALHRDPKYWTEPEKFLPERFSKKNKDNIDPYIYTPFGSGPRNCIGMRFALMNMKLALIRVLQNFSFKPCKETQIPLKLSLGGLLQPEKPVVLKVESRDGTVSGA
Inhibitor of nuclear factor kappa-B kinase subunit beta, sequence (O14920 whole entry): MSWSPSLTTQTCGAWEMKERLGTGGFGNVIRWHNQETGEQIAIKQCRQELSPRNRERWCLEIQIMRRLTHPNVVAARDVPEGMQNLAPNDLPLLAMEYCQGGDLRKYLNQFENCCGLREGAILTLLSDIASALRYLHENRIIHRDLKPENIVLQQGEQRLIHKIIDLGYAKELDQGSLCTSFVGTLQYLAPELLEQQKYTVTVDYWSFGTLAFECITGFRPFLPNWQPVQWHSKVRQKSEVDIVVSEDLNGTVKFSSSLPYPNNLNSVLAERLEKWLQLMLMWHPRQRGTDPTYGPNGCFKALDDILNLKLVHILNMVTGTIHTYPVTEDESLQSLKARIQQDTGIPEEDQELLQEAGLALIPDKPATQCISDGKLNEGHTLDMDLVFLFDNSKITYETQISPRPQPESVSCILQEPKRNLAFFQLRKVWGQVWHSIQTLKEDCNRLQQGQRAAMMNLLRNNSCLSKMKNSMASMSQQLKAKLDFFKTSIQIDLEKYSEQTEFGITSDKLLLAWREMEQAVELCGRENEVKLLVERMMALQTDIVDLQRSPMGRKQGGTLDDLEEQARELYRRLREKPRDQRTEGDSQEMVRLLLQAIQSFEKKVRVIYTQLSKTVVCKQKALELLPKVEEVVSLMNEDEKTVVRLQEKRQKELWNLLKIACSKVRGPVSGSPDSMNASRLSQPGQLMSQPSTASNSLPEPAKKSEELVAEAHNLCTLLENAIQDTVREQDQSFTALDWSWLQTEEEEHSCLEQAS
Aurora kinase A, sequence (O14965 whole entry): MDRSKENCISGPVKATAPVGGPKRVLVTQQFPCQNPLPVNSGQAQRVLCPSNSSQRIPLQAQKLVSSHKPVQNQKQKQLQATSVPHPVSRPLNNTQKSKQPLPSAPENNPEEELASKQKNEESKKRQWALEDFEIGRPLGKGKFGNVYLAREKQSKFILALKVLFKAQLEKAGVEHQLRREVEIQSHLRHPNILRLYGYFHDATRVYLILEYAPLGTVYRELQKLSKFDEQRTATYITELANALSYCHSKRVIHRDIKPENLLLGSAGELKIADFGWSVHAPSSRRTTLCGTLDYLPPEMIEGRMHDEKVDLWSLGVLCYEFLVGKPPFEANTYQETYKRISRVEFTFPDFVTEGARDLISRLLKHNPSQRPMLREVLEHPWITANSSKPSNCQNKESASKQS
Mitogen-activated protein kinase 1 (Mus musculus), sequence (P63085 whole entry): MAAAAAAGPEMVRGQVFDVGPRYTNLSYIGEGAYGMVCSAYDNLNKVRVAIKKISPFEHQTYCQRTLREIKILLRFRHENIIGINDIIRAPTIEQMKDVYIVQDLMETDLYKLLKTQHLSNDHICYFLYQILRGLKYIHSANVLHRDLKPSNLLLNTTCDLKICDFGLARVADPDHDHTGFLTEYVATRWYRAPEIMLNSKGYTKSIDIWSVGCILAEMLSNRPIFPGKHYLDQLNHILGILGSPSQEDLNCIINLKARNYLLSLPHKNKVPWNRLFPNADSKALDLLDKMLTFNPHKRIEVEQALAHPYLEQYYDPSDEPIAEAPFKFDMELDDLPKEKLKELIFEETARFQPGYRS
RAF proto-oncogene serine/threonine-protein kinase, sequence (P04049 whole entry): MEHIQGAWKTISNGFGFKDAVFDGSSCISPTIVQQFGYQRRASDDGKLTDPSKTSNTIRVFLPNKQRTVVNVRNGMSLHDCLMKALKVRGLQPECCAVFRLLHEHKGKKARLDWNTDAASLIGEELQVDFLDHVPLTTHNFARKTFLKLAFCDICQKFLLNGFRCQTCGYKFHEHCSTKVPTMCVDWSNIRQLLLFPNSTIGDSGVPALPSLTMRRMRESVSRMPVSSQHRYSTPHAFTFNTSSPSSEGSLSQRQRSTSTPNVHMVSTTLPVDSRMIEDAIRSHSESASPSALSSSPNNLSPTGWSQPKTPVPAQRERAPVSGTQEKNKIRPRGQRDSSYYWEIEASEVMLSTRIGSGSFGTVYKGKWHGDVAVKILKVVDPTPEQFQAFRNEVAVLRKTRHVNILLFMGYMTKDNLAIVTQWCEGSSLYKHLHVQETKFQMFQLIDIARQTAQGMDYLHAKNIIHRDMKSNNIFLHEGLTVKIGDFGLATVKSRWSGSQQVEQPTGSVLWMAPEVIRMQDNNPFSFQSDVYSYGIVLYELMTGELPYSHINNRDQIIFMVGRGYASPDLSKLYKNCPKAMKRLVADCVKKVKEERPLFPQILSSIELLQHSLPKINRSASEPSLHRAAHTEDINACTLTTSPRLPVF

With Nc1nccn2c1c(-c1ccc3ccc(-c4ccccc4)nc3c1)nc2[C@H]1C[C@@H](CN2CCC2)C1 the Activity [1] was “Dose-dependent effect”, the IC50 [2] was greater than 10 µM and the concentration at 24 h [3] was 90 nM. It also gave a Vd [4] of 50 L/kg, a bioavailability [5] of 94% and an IC50 [6] greater than 20 µM. The IC50 [7] was greater than 10 µM, the Activity [8] was 14.7 ng/mL and the half-life [9] was 19.9 h. For the same compound, the Activity [10] was “Dose-dependent effect”, the IC50 [11] was greater than 10 µM and the Cmax [12] was 3400 nM. It also gave a concentration at 24 h [13] of 400 nM, an Activity [14] of 27 ng/mL and an IC50 [15] greater than 10 µM. It also gave an IC50 [16] of 2.98 µM, an AUC(0-inf) [17] of 25600 ng·h/mL and an IC50 [18] of 0.02 µM. It also gave a concentration at 24 h [19] of 900 nM, an IC50 [20] of 1.95 µM and an IC50 [21] greater than 10 µM. The half-life [22] was 5.1 h, the Activity [23] was 16 and the Activity [24] was -2.9%. It also gave an IC50 [25] of 5.9 µM, a half-life [26] of 19 h and an IC50 [27] greater than 10 µM. The IC50 [28] was greater than 10 µM, the IC50 [29] was 4.3 µM and the IC50 [30] was 0.69 µM. For the same compound, the inhibition in vivo at 75 mg/kg [31] was greater than 100%, the Activity [32] was 18% and the Activity [33] was 44%. It also gave an IC50 [34] of 0.05 µM, a clearance [35] of 24 mL/min/kg and an IC50 [36] greater than 10 µM. It also gave an inhibition in vivo at 25 mg/kg [37] of 92%, an Activity [38] of 46 and a bioavailability [39] of 38%. For the same compound, the IC50 [40] was greater than 10 µM, the Activity [41] was 51 and the IC50 [42] was greater than 10 µM. The IC50 [43] was 0.93 µM, the IC50 [44] was greater than 10 µM and the IC50 [45] was greater than 10 µM. The IC50 [46] was greater than 10 µM, the IC50 [47] was greater than 5 µM and the AUC(0-inf) [48] was 37400 ng·h/mL. It also gave an IC50 [49] greater than 10 µM, an IC50 [50] greater than 10 µM and an Activity [51] of 75%. The IC50 [52] was greater than 10 µM, the IC50 [53] was 0.05 µM and the AUC(0-inf) [54] was 3010 ng·h/mL. The IC50 [55] was greater than 10 µM, the Vd [56] was 14 L/kg and the IC50 [57] was 0.27 µM. It also gave an IC50 [58] of 1.26 µM, a Cmax [59] of 170 nM and a Cmax [60] of 1600 nM. The clearance [61] was 10 mL/min/kg, the Activity [62] was 13.1 ng/mL and the Activity [63] was 2.7. The Activity [64] was “Dose-dependent effect”, the IC50 [65] was 0.035 µM and the IC50 [66] was greater than 10 µM. The IC50 [67] was greater than 10 µM, the clearance [68] was 30 mL/min/kg and the Activity [69] was 4. For the same compound, the IC50 [70] was greater than 10 µM, the Activity [71] was 0.8 and the Activity [72] was “Dose-dependent effect”. It also gave an IC50 [73] greater than 10 µM, a Vd [74] of 10 L/kg and a bioavailability [75] of 100%. The IC50 [76] was 0.076 µM.

Compound Nc1nccn2c1c(-c1ccc3ccc(-c4ccccc4)nc3c1)nc2[C@H]1C[C@@H](CN2CCOCC2)C1 has an IC50 [6] greater than 20 µM.
